Results published in patent publication US20260198497A1, “A BENZENE RING-SUBSTITUTED PYRIMIDINECARBOXYLIC ACID COMPOUND, PREPARATION METHOD THEREFOR, HERBICIDAL COMPOSITION AND APPLICATION THEREOF” (QINGDAO KINGAGROOT CHEMICAL COMPOUND CO., LTD., priority 2023, published 2026).
Like-named read-outs stand apart in the source and are kept apart here.

What was measured:
Lindernia procumbens = test: Activity assay of compositions, post-emergence spray of stems and leaves; format: in vivo; conditions: 21 days
From the text: (§1) The required active ingredient B was purchased from a reagent company or a technical material manufacturer or synthesized by a conventional method. The active ingredient A was Compound 74 in Table 1. The technical materials were all dissolved with acetone solvents and diluted with aqueous solution of 0.1% Tween® 80 emulsifier, which should be used immediately after dilution.
(§2) Weeds were cultivated by a pot culture method. […] Weed seeds with plump and uniform grains were selected, soaked in lukewarm water at 25° C. for 6 hours, and accelerated to germinate in a 28° C. biochemical incubator (in darkness). The weed seeds that had just germinated were evenly placed on the surface of the soil and then covered with 0.5-1 cm soil according to the sizes of seeds.
(§3) The weeds were cultured in a controllable sunlight greenhouse at 20-30° C., in natural light, and with relative humidity of 57%-72%. The soil was loam with an organic matter content of 1.63%, a pH value of 7.1, alkali-hydrolyzable nitrogen of 84.3 mg/kg, rapidly available phosphorus of 38.5 mg/kg, and rapidly available potassium of 82.1 mg/kg.
(§4) Each treatment was repeated 4 times for 3 pots. Each pot was seeded with 20 weed seeds.
(§5) The drugs were applied once in total in the experiment. When at the stage of 1.5-2 leaves, the weeds were thinned out to maintain 10 strains per pot. Thirty strains were kept in each treatment and then continued to be cultured until the Erigeron canadensis reached 10 cm tall and other weeds in their 3-4 leaf stage for further treatment.
(§6) The well-cultured test materials were evenly placed on a 0.5 m^2 platform and foliage-sprayed by the 3WP-2000-type walking spray tower at a dosage of […] and a spray pressure of 0.3 MPa. After all the drug solution was sprayed, the air valve was closed. And 30 seconds later, the door of the spray tower was opened, and the nutritional bowl was taken out. Next, the air valve was opened, and the spray tube was cleaned by spraying 50 ml of water. The test materials were transferred to and routinely cultured in a greenhouse after the treatment.
(§7) A method for investigating absolute numbers was employed. The whole seedlings of the survival weeds were cut along the soil surface with a blade, and the fresh weight of the weeds was weighed by an analytical balance. For dead weeds, the fresh weight thereof was considered zero.
(§8) The investigation was performed 21 days after the treatment for once in total.
(§9) The theoretical fresh weight inhibition rate of a mixed combination of each treatment was calculated by the Gowing method (E0=X+Y−X*Y/100). Then compared with the measured inhibition rate (E), the type of the combined action of the combination of the two on weeds was evaluated, which was a synergistic effect when E−E0>10; an antagonistic effect when E−E0<−10%; an additional effect when −10≤E−E0≤[…]. An optimal ratio was determined according to factors such as the actual control effects, characteristics of herbicides, balance of the formulation, etc. In the formula, X represents the fresh weight inhibition rate of the active ingredient A in a dosage of P; Y represents the fresh weight inhibition rate of the active ingredient B in a dosage of Q. The statistical results are shown in Table 5 below.

Monochoria vaginalis [1] = test: as above; format: in vivo; conditions: 21 days
Procedure: as §1, with “The active ingredient A was Compound 74 in Table 1.” left out
as §2, §3, §4, §5, §6, §7, §8, §9

[2] = test system: paddy rice (japonica rice); conditions: in vivo
From the text: (§10) The criteria for activity levels of plant damage (i.e., growth control rate) are as follows: • Level 9: completely dead; • Level 8: growth control rate is greater than or equal to 90% and less than 100%; • Level 7: growth control rate is greater than or equal to 80% and less than 90%; • Level 6: growth control rate is greater than or equal to 70% and less than 80%; • Level 5: growth control rate is greater than or equal to 50% and less than 70%; • Level 4: growth control rate is greater than or equal to 30% and less than 50%; • Level 3: growth control rate is greater than or equal to 20% and less than 30%; • Level 2: growth control rate is greater than or equal to 10% and less than 20%; • Level 1: growth control rate is less than 10%; • Level 0: no effect.
(§11) The above growth control rates are fresh weight control rates.
In addition, after being loaded into the 1/1,000,000 ha pot, the paddy field soil was leveled to keep the water storage at a depth of 3-4 cm. The paddy rice (japonica rice) at 3-leaf stage was transplanted at a transplanting depth of 3 cm on the next day. The compounds of the present invention were treated in the same manner as above on the 5th day after the transplantation.
(§12) The effects were evaluated according to the above-mentioned criteria for activity levels.

Veronica = test: Post-emergence test on weeds; format: in vivo; parameters: key: 0 = no effect, 9 = completely dead (levels by growth control rate); conditions: 30 g a.i./ha, 3 weeks after application
From the text: as §10, §11
(§13) Monocotyledonous and dicotyledonous weed seeds (Descurainia sophia, Capsella bursa-pastoris, Abutilon theophrasti, Galium spurium, Stellaria media, Lithospermum arvense, Rorippa indica, Alopecurus aequalis, Alopecurus japonicus, Eleusine indica, Beckmannia syzigachne, Sclerochloa dura, Erigeron canadensis, Phleum paniculatum, Veronica, Bromus japonicus, Aegilops tauschii, Phalaris arundinacea, Amaranthus retroflexus, Chenopodium, Commelina communis, Cichorium endivia, Convolvulus arvensis, Cirsium arvense, Solanum nigrum, Acalypha australis, Digitaria sanguinalis, Echinochloa crusgalli, Setaria viridis, Setaria pumila, Leptochloa chinensis, Monochoria vaginalis, Sagittaria trifolia, Schoenoplectiella juncoides, Cyperus rotundus, Cyperus iria, Cyperus difformis, Fimbristylis, Portulaca oleracea, Xanthium sibiricum, Ipomoea nil, Eschenbachia japonica, etc.) and major crop seeds (wheat, maize, paddy rice, soybean, cotton, oilseed rape, millet, sorghum, potato, sesame, castor plant, Chinese cabbage, radish, etc.) were placed in plastic pots filled with soil and then covered with 0.5-2 cm of soil to allow them to grow in a favorable greenhouse environment. Two weeks after sowing, the test plants were treated at the stage of 2-3 leaves. The test compounds of the present invention were individually dissolved with acetone, then added with Tween® 80, with 1.5 L/ha of methyl oleate emulsifiable concentrate as a synergist, diluted into solution of a certain concentration using a certain amount of water, and sprayed to plants using a spray tower. After drug application, the experimental results on weeds were collected after 3 weeks of cultivation in a greenhouse. The compounds were applied at 120, 60, 30, and 15 g a.i./ha in triplicate, and the results were averaged.

Radish = test: Post-emergence test, crop safety; conditions: in vivo, 3 weeks
From the text: as §10, §11, §13

Oilseed rape = test: Post-emergence test, crop safety; conditions: in vivo, 3 weeks
From the text: as §10, §11, §13

Paddy rice = test: Post-emergence test, crop safety; conditions: in vivo, 3 weeks
From the text: as §10, §11, §13

Maize = test: Post-emergence test, crop safety; conditions: in vivo, 3 weeks
From the text: as §10, §11, §13

Chinese cabbage = test: Post-emergence test, crop safety; conditions: in vivo, 3 weeks
From the text: as §10, §11, §13

Wheat = test: Post-emergence test, crop safety; conditions: in vivo, 3 weeks
From the text: as §10, §11, §13

Monochoria vaginalis [3] = test: Control effect evaluation on weeds in paddy fields; format: in vivo; conditions: 75 g a.i./ha, paddy pot, 14th day after treatment, seeds resistant to pyrazosulfuron-ethyl
From the text: as §10, §11
(§14) After paddy field soil was loaded into a 1/1,000,000 ha pot, the seeds of Monochoria vaginalis, Pontederia korsakowii and Bidens tripartita were sowed and gently covered with soil, then left to stand in a greenhouse with water storage of 0.5-1 cm deep. The tuber of Sagittaria trifolia was planted on the next day or 2 days later. The water storage was kept at a depth of 3-4 cm thereafter. When the Monochoria vaginalis, Pontederia korsakowii and Bidens tripartita reached their 0.5-leaf stages and the Sagittaria trifolia reached the primary leaf stage, WP or SC aqueous dilutions of the compounds of the present invention formulated according to customary formulation methods were homogeneously dripped for treatment to the specified effective amount using pipettes.
as §12

Pontederia korsakowii = test: Control effect evaluation on weeds in paddy fields; format: in vivo; conditions: 75 g a.i./ha, paddy pot, 14th day after treatment, seeds resistant to pyrazosulfuron-ethyl
From the text: as §10, §11, §14, §12

Bidens tripartita = test: Control effect evaluation on weeds in paddy fields; format: in vivo; conditions: 75 g a.i./ha, paddy pot, 14th day after treatment, seeds resistant to pyrazosulfuron-ethyl
From the text: as §10, §11, §14, §12

Compound	activity level, Paddy rice ([2]; japonica, paddy rice, 21 days)	activity level, Paddy rice [2]	Control effect of B applied alone in a corresponding dose (%) (Lindernia procumbens; B 7.5 g a.i./ha)	Control effect of B applied alone in a corresponding dose (%) (Lindernia procumbens; B 15 g a.i./ha)	Control effect of B applied alone in a corresponding dose (%) (Monochoria vaginalis [1]; B 150 g a.i./ha)	Control effect of B applied alone in a corresponding dose (%) (Monochoria vaginalis [1]; B 300 g a.i./ha)	activity level of plant damage (growth control rate), Veronica (Veronica)	activity level of plant damage (growth control rate), Radish (Radish)	activity level of plant damage (growth control rate), Oilseed rape (Oilseed rape)	activity level of plant damage (growth control rate), Paddy rice (Paddy rice)	activity level of plant damage (growth control rate), Maize (Maize)	activity level of plant damage (growth control rate), Chinese cabbage (Chinese cabbage)	activity level of plant damage (growth control rate), Wheat (Wheat)	activity level, Monochoria vaginalis (Monochoria vaginalis [3])	activity level, Pontederia korsakowii (Pontederia korsakowii)	activity level, Bidens tripartita (Bidens tripartita)	Control effect of B applied alone in a corresponding dose (%) (Monochoria vaginalis [1]; B 600 g a.i./ha)	Control effect of B applied alone in a corresponding dose (%) (Monochoria vaginalis [1]; B 1200 g a.i./ha)
CC(C)C12CCC(C)(O1)C(OCc1c(F)cccc1Br)C2 (stereo not drawn)			42.8%	60.7%														
CC(C)N1C(=O)c2ccccc2NS1(=O)=O [Bentazone, bentazone]					45.2%	60.5%												
COC(=O)c1nc(-c2ccc(C(F)F)c(OC)c2F)nc(N)c1OC [Compound 4]		0					9							9	9	9		
COc1c(N)nc(-c2ccc(C(F)(F)F)c(OC)c2F)nc1C(=O)ON=C(C)C [Compound 106]	0						9	0	0	0	0	0	0	9	9	9		
CCC(=O)Nc1ccc(Cl)c(Cl)c1 [Propanil, propanil]																	22.1%	37.4%

Now from value to compound, other results behind:

activity level, Paddy rice ([2]; japonica, paddy rice, 21 days)	activity level, Paddy rice [2]	Compound	Control effect of B applied alone in a corresponding dose (%) (Lindernia procumbens; B 7.5 g a.i./ha)	Control effect of B applied alone in a corresponding dose (%) (Lindernia procumbens; B 15 g a.i./ha)	Control effect of B applied alone in a corresponding dose (%) (Monochoria vaginalis [1]; B 150 g a.i./ha)	Control effect of B applied alone in a corresponding dose (%) (Monochoria vaginalis [1]; B 300 g a.i./ha)	activity level of plant damage (growth control rate), Veronica (Veronica)	activity level of plant damage (growth control rate), Radish (Radish)	activity level of plant damage (growth control rate), Oilseed rape (Oilseed rape)	activity level of plant damage (growth control rate), Paddy rice (Paddy rice)	activity level of plant damage (growth control rate), Maize (Maize)	activity level of plant damage (growth control rate), Chinese cabbage (Chinese cabbage)	activity level of plant damage (growth control rate), Wheat (Wheat)	activity level, Monochoria vaginalis (Monochoria vaginalis [3])	activity level, Pontederia korsakowii (Pontederia korsakowii)	activity level, Bidens tripartita (Bidens tripartita)	Control effect of B applied alone in a corresponding dose (%) (Monochoria vaginalis [1]; B 600 g a.i./ha)	Control effect of B applied alone in a corresponding dose (%) (Monochoria vaginalis [1]; B 1200 g a.i./ha)
0		COC(=O)c1nc(-c2ccc(C(F)(F)F)c(OC)c2F)nc(N)c1OC [Compound 3]					9	0	0	0	0	0	0	9	9	9		
0		CCOC(=O)c1nc(-c2ccc(C(F)(F)F)c(OC)c2F)nc(N)c1OC [Compound 24]					9	0	0	0	0	0	0	9	9	9		
0		COc1c(N)nc(-c2ccc(C(F)(F)F)c(OC)c2F)nc1C(=O)OCC(F)(F)F [Compound 62]					9	0	0	0	0	0	0	9	9	9		
0		COc1c(N)nc(-c2ccc(C(F)(F)F)c(OC)c2F)nc1C(=O)OC1CC1 [Compound 116]					9	0	0	0	0	0	0	9	9	9		
